Legend:
X7C DAT [1] = biological target: T1, X7C DAT (Homo sapiens, UniProt Q01959, C135A/C306A/C319M/C342M/C581L/C90A); experiment: [3H]MFZ 2-12 binding, membranes
T1 sequence (Q01959 23-620 C90A/C135A/C306A/C319M/C342M/C581L): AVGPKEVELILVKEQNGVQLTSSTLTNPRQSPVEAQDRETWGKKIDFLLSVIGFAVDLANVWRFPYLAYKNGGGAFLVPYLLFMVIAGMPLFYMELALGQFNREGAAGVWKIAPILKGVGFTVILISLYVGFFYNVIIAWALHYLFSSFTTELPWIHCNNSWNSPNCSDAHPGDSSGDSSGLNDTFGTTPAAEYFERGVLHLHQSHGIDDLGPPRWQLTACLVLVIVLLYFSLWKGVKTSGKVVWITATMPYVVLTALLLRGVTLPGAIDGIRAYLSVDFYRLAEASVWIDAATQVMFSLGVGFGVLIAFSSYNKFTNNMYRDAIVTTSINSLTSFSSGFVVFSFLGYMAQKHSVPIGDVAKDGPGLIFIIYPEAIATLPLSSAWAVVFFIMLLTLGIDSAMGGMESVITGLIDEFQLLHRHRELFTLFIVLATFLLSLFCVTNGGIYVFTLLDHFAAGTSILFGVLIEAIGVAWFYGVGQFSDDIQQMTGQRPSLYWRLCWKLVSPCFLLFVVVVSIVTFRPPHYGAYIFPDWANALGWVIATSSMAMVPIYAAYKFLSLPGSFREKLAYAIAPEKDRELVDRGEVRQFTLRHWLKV

WT DAT = conditions: ref Loland et al., 1999, Norregaard et al., 1998; cited from earlier work
[2] = biological target: T2, all the remaining mutants as well as the background construct X7C (Homo sapiens, UniProt Q01959, C135A/C306A/C319M/C342M/C581L/C90A); experiment: Effect of Zn2+ on [3H]tyramine uptake; format: cell-based; conditions: 10 μM Zn^2+, 15 min prior to and during uptake
T2 sequence (Q01959 23-620 C90A/C135A/C306A/C319M/C342M/C581L): T1 sequence (Q01959 23-620 C90A/C135A/C306A/C319M/C342M/C581L)

DAT Tyr335 to alanine = conditions: ref Loland et al., 2002; cited from earlier work
X7C DAT [3] = biological target: T1, X7C DAT
[4] = substrate: NCCc1ccc(O)cc1; experiment: cells, lysate or membranes; conditions: other: X7C; pH 7.4; 37.0 °C

Q: What does the source list for `COC(=O)[C@H]1[C@@H](c2ccc(Cl)c(Cl)c2)C[C@@H]2CC[C@H]1N2C` [MFZ 2-12]?
A: MFZ 2-12 Bmax ± SEM (X7C DAT [1]): 5 ± 2 pmol/mg; Kd (X7C DAT [1]; read-out: MFZ 2-12 KD ± SEM): 2.2 ± 0.5 nM

Q: With `[Cl-].[Cl-].[Zn+2]` [Zn^2+, ZnCl2] as the molecule, how does the “effect of Zn^2+ on dopamine uptake” value (WT DAT) read?
A: The value was “inhibits”.

Q: What about the “effect of Zn^2+ on tyramine uptake” value [2] of the same molecule?
A: Its value is “inhibited uptake”.

Q: And the “effect of Zn^2+ on low uptake capacity” value (DAT Tyr335 to alanine)?
A: Its value is “substantially restored”.

Q: For `NCCc1ccc(O)cc1` [tyramine], which “Vmax for tyramine uptake” value (X7C DAT [3]) is on record?
A: Its value is 29 ±8.

B1: X7C DAT (Homo sapiens; C135A/C306A/C319M/C342M/C581L/C90A) (protein)
chain: T1 sequence (Q01959 23-620 C90A/C135A/C306A/C319M/C342M/C581L)
Q: With B1 as the molecule, how does the Km [4] read?
A: The Km was 2.6 µM.

From paper PMC4058377 (Neurochemistry international, 2014)
